Each structure is given as a SMILES string.

In general, EC50 refers to the concentration that produces a half-maximal response.

This experiment deals with T1, OR11A1 (reference haplotype MA) (Homo sapiens, UniProt Q9GZK7).
T1 construct: Hana3A cells co-transfected with RTP1S and M3-R
T1 sequence (Q9GZK7 1-315): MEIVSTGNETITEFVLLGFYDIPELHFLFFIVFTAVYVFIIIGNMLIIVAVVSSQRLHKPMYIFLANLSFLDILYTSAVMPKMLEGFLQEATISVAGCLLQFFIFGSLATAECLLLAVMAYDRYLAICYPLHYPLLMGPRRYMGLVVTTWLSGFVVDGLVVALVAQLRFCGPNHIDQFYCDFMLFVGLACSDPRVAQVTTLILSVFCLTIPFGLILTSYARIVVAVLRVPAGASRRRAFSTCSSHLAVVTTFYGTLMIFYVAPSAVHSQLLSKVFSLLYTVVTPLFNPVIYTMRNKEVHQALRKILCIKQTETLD
Kind of experiment: CRE-luciferase reporter assay in Hana3A cells. It is filed as cell-based. As to conditions: read-out: log(EC50 of reference MA) (converted). Background: Reporter assays use an easily measured gene product as a stand-in for the process of interest.

For `CCC1(O)C2(C)CCC(C2)C1(C)C` (stereo not shown) [2-ethylfenchol], the EC50 is 158 nM.
